The subject of this assay is PA-HA from several FluA strains. Type of assay: binding, influenza A virus.

Molecules are shown by their SMILES.

On to `CC[C@H](C)[C@H](NC(=O)[C@H](C)NC(=O)[C@H](CC(N)=O)NC(=O)[C@H](CCC(N)=O)NC(=O)[C@H](C)NC(=O)[C@@H]1CCCN1C(=O)[C@@H](NC(=O)[C@H](CCCCN)NC(=O)[C@H](CC(C)C)NC(=O)[C@H](Cc1ccccc1)NC(=O)[C@H](CC(C)C)NC(=O)[C@H](CC(C)C)NC(=O)[C@@H](NC(=O)[C@@H]1CCCN1C(=O)[C@H](CC(N)=O)NC(=O)[C@@H](NC(=O)[C@H](CC(=O)O)NC(=O)[C@@H](N)CCSC)C(C)C)[C@@H](C)O)C(C)C)C(=O)N[C@@H](CO)C(=O)N[C@H](C(=O)N[C@H](C(=O)N[C@@H](Cc1ccccc1)C(=O)N1CCC[C@H]1C(=O)N[C@@H](Cc1ccc(O)cc1)C(=O)N[C@H](C(N)=O)[C@@H](C)O)[C@@H](C)O)[C@@H](C)O` [PB1_1–25A], for which the “Binding of FluA PA-HA to immobilized peptide” value was “bound”.

These data come from paper PMC2759517 (PLoS ONE, 2009).
